Test results as given in patent US12084436B2, “Heterocyclic compound” (Takeda Pharmaceutical Company Limited, priority 2019, dated 2024).

Molecular target: T1, HDAC6 enzyme (Homo sapiens, UniProt Q9UBN7)
T1 construct: prepared by transducing full length HDAC6 gene into Sf-9 insect cells; GST; purchased SignalChem; host or cells: Sf-9 insect cells
T1 sequence (Q9UBN7 1-1215): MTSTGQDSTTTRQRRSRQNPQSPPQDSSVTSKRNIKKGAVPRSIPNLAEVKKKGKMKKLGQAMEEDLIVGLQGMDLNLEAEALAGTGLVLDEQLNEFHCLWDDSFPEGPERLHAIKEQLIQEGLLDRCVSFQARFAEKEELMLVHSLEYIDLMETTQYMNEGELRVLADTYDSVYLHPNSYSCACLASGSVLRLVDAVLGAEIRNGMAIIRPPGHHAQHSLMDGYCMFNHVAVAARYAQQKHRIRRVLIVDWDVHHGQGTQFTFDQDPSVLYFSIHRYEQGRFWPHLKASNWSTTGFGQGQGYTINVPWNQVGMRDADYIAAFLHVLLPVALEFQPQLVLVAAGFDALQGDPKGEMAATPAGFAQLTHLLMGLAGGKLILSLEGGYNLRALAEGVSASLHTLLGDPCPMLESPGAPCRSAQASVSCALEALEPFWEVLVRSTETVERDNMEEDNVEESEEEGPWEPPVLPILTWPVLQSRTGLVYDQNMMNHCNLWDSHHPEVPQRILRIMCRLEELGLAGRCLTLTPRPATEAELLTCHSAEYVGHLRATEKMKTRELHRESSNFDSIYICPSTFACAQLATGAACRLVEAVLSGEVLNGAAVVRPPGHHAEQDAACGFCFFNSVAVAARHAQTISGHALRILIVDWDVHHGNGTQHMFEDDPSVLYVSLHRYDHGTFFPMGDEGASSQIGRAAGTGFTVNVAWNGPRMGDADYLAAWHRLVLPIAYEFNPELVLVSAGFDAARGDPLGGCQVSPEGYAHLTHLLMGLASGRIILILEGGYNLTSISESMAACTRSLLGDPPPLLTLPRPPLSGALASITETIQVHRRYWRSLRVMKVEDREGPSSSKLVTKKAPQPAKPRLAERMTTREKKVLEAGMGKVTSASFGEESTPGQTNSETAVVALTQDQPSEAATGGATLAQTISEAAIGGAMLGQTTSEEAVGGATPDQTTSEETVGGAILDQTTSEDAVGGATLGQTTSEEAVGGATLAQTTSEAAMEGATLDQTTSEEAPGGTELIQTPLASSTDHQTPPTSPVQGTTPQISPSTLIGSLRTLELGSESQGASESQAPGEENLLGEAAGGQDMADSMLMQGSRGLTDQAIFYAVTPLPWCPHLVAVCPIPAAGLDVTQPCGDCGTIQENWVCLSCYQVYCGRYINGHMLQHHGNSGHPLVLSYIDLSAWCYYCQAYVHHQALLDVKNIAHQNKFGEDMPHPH
Test: HDAC6 enzyme inhibitory assay (HDAC-Glo I/II Assay kit, luminescence)
Format: biochemical
Settings: 10 μM test compound; wells without enzyme = 100% inhibition; read-out: HDAC6 inhibitory rate (%) (10 μM)
Summary of the method: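 Full-length human HDAC6, GST-purified from Sf-9 cells, was preincubated with compound for 60 min at room temperature in Tris-HCl pH 7.5 buffer with glutathione and Tween-20. Substrate-developer was then added, and luminescence was read after 20 min at room temperature. Inhibition was expressed relative to no-enzyme wells, taken as 100% inhibition.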

`Fc1cccc(Cn2ccnc2-c2cc(F)cc(-c3nnc(C(F)F)o3)c2)c1` [Example 44a, 2-(difluoromethyl)-5-(3-fluoro-5-{1-[(3-fluorophenyl)methyl]-1H-imidazol-2-yl}phenyl)-1,3,4-oxadiazole] and `Fc1ccc(Cn2ccnc2-c2cc(F)cc(-c3nnc(C(F)F)o3)c2)cc1` [Example 46a, 2-(difluoromethyl)-5-(3-fluoro-5-{1-[(4-fluorophenyl)methyl]-1H-imidazol-2-yl}phenyl)-1,3,4-oxadiazole] are the same in inhibition at 10 µM: 99% for the first, 99% for the second.

`CN1C(=O)c2cc(-c3nnc(C(F)F)o3)ccc2OC1c1ccc(F)cc1` (stereo not shown) [Example 44b, 6-[5-(difluoromethyl)-1,3,4-oxadiazol-2-yl]-2-(4-fluorophenyl)-3-methyl-2,3-dihydro-4H-1,3-benzoxazin-4-one] and `CCN1C(=O)c2cc(-c3nnc(C(F)F)o3)ccc2OC1(C)c1ccc(F)cc1` (stereo not shown) [Example 45b, 6-[5-(difluoromethyl)-1,3,4-oxadiazol-2-yl]-3-ethyl-2-(4-fluorophenyl)-2-methyl-2,3-dihydro-4H-1,3-benzoxazin-4-one] are the same in inhibition at 10 µM: 100% for the first, 100% for the second.

Compared with `COC(=O)c1ccccc1CN(C)N1Cc2ccc(-c3nnc(C(F)F)o3)cc2C1=O` [Example 44c, methyl 2-{[{6-[5-(difluoromethyl)-1,3,4-oxadiazol-2-yl]-1-oxo-1,3-dihydro-2H-isoindol-2-yl}(methyl)amino]methyl}benzoate], `CC(=O)Nc1ccc(CN(C)N2Cc3ccc(-c4nnc(C(F)F)o4)cc3C2=O)cc1` [Example 52c, N-(4-{[{6-[5-(difluoromethyl)-1,3,4-oxadiazol-2-yl]-1-oxo-1,3-dihydro-2H-isoindol-2-yl}(methyl)amino]methyl}phenyl) acetamide] is lower in inhibition at 10 µM: 102% for the first, 100% for the second.

Going from `Fc1cc(-c2nnc(C(F)F)o2)cc(-c2nccn2Cc2ccc(F)c(F)c2)c1` [Example 45a, 2-(difluoromethyl)-5-(3-{1-[(3,4-difluorophenyl)methyl]-1H-imidazol-2-yl}-5-fluorophenyl)-1,3,4-oxadiazole] to `Fc1cc(-c2nnc(C(F)F)o2)cc(-c2nccn2Cc2cccnc2)c1` [Example 49a], the inhibition at 10 µM falls from 100% to 99%.

Going from `CN(Cc1ccc2nccn2c1)N1Cc2ccc(-c3nnc(C(F)F)o3)cc2C1=O` [Example 45c, 6-[5-(difluoromethyl)-1,3,4-oxadiazol-2-yl]-2-{[(imidazo[1,2-a]pyridin-6-yl)methyl](methyl)amino}-2,3-dihydro-1H-isoindol-1-one] to `CN(Cc1ccnc(F)c1)N1Cc2ccc(-c3nnc(C(F)F)o3)cc2C1=O` [Example 51c, 6-[5-(difluoromethyl)-1,3,4-oxadiazol-2-yl]-2-{[(2-fluoropyridin-4-yl)methyl](methyl)amino}-2,3-dihydro-1H-isoindol-1-one], the inhibition at 10 µM rises from 99% to 100%.

Compared with `CCN1C(=O)c2cc(-c3nnc(C(F)F)o3)ccc2CN1c1ccc(F)cc1` [Example 46b, 7-[5-(difluoromethyl)-1,3,4-oxadiazol-2-yl]-2-ethyl-3-(4-fluorophenyl)-3,4-dihydrophthalazin-1(2H)-one], `O=C1c2cc(-c3nnc(C(F)F)o3)ccc2CN(c2ccc(F)cc2)N1CC(F)F` [Example 48b, 2-(2,2-difluoroethyl)-7-[5-(difluoromethyl)-1,3,4-oxadiazol-2-yl]-3-(4-fluorophenyl)-3,4-dihydrophthalazin-1(2H)-one] is higher in inhibition at 10 µM: 100% for the first, 101% for the second.

Compared with `CCOC(=O)CN(C)N1Cc2ccc(-c3nnc(C(F)F)o3)cc2C1=O` [Example 46c, ethyl N-{6-[5-(difluoromethyl)-1,3,4-oxadiazol-2-yl]-1-oxo-1,3-dihydro-2H-isoindol-2-yl}-N-methylglycinate], `CCOC(=O)CCCN(C)N1Cc2ccc(-c3nnc(C(F)F)o3)cc2C1=O` [Example 50c, ethyl 4-[{6-[5-(difluoromethyl)-1,3,4-oxadiazol-2-yl]-1-oxo-1,3-dihydro-2H-isoindol-2-yl}(methyl)amino]butanoate] is lower in inhibition at 10 µM: 99% for the first, 98% for the second.

Going from `Fc1cc(-c2nnc(C(F)F)o2)cc(-n2nccc2OC2CCOCC2)c1` [Example 47a, 2-(difluoromethyl)-5-(3-fluoro-5-{5-[(oxan-4-yl)oxy]-1H-pyrazol-1-yl}phenyl)-1,3,4-oxadiazole] to `Cn1ccc(OC2CCOCC2)c(-c2cc(F)cc(-c3nnc(C(F)F)o3)c2)c1=O` [Example 53a, 3-{3-[5-(difluoromethyl)-1,3,4-oxadiazol-2-yl]-5-fluorophenyl}-1-methyl-4-[(oxan-4-yl)oxy]pyridin-2(1H)-one], the inhibition at 10 µM rises from 99% to 100%.

Going from `CC1(c2ccc(F)cc2)Oc2ccc(-c3nnc(C(F)F)o3)cc2C(=O)N1CC1CC1` (stereo not shown) [Example 47b, 3-(cyclopropylmethyl)-6-[5-(difluoromethyl)-1,3,4-oxadiazol-2-yl]-2-(4-fluorophenyl)-2-methyl-2,3-dihydro-4H-1,3-benzoxazin-4-one] to `COCCN1C(=O)c2cc(-c3nnc(C(F)F)o3)ccc2OC1(C)c1ccc(F)cc1` (stereo not shown) [Example 52b, 6-[5-(difluoromethyl)-1,3,4-oxadiazol-2-yl]-2-(4-fluorophenyl)-3-(2-methoxyethyl)-2-methyl-2,3-dihydro-4H-1,3-benzoxazin-4-one], the inhibition at 10 µM falls from 101% to 100%.

`CN(Cc1cccc2cnccc12)N1Cc2ccc(-c3nnc(C(F)F)o3)cc2C1=O` [Example 47c, 6-[5-(difluoromethyl)-1,3,4-oxadiazol-2-yl]-2-{[(isoquinolin-5-yl)methyl](methyl)amino}-2,3-dihydro-1H-isoindol-1-one] and `CN(Cc1cc(O)ccc1F)N1Cc2ccc(-c3nnc(C(F)F)o3)cc2C1=O` [Example 49c, 6-[5-(difluoromethyl)-1,3,4-oxadiazol-2-yl]-2-{[(2-fluoro-5-hydroxyphenyl)methyl](methyl)amino}-2,3-dihydro-1H-isoindol-1-one] are the same in inhibition at 10 µM: 100% for the first, 100% for the second.

`CN(CCOCc1ccccc1)N1Cc2ccc(-c3nnc(C(F)F)o3)cc2C1=O` [Example 48c, 2-{[2-(benzyloxy)ethyl](methyl)amino}-6-[5-(difluoromethyl)-1,3,4-oxadiazol-2-yl]-2,3-dihydro-1H-isoindol-1-one] and `COCC1(c2ccccc2)Oc2ccc(-c3nnc(C(F)F)o3)cc2C(=O)N1C` (stereo not shown) [Example 51b, 6-[5-(difluoromethyl)-1,3,4-oxadiazol-2-yl]-2-(methoxymethyl)-3-methyl-2-phenyl-2,3-dihydro-4H-1,3-benzoxazin-4-one] are the same in inhibition at 10 µM: 99% for the first, 99% for the second.

First: CN1C(=O)c2cc(-c3nnc(C(F)F)o3)ccc2C[C@@]1(C)c1ccc(F)c(F)c1 [Example 49b, (3S)-7-[5-(difluoromethyl)-1,3,4-oxadiazol-2-yl]-3-(3,4-difluorophenyl)-2,3-dimethyl-3,4-dihydroisoquinolin-1(2H)-one]
Second: CN1C(=O)c2cc(-c3nnc(C(F)F)o3)ccc2C[C@]1(C)c1ccc(F)c(F)c1 [Example 50b, (3R)-7-[5-(difluoromethyl)-1,3,4-oxadiazol-2-yl]-3-(3,4-difluorophenyl)-2,3-dimethyl-3,4-dihydroisoquinolin-1(2H)-one]
The inhibition at 10 µM of the first is lower: 42% for the first, 101% for the second.

`CN1C(=O)c2cc(-c3nnc(C(F)F)o3)cnc2C[C@]1(C)c1cccc(F)c1` [Example 53b, (7R)-3-[5-(difluoromethyl)-1,3,4-oxadiazol-2-yl]-7-(3-fluorophenyl)-6,7-dimethyl-7,8-dihydro-1,6-naphthyridin-5(6H)-one] gave an inhibition at 10 µM of 98%.
